Measurements: patent US8206704B2, “Use of GCC ligands” (priority 2003, dated 2012)
“Also recorded” adds a separate entry of the source. Like-named read-outs stand apart in the source and are kept apart here.

Assays:
T84 cells [1] = assay: DNA synthesis ([methyl-3H]thymidine incorporation), tumor cell proliferation; format: cell-based, human
Description: (§1) T84 (passages 50-70) and SW480 (passage 100-120) human colon carcinoma cells, obtained from the American Type Culture Collection, were maintained at 37° C. (5% CO2) in DMEM/F12 containing 2.5 mM L-glutamine, 100 units/ml penicillin, 100 μg/ml streptomycin, and 10% (vol/vol) FBS.
(§2) Exponentially growing cancer cells (˜60% confluent in 96-well plates) were synchronized by serum starvation in Eagle's minimal essential medium (EMEM) for 48 h, followed by proliferative induction with 10 mM L-glutamine (in EMEM) for 24 h. ST and other agents were added to cells 15 min before 0.2 μCi per well (1 Ci=37 GBq) of [methyl-3H]thymidine, which was added for 3 h, followed by quantification of [3H]thymidine incorporation into DNA (15).

T84 cells [2] = assay: 45Ca2+ transport (calcium influx); format: cell-based, human
Description: Exponentially growing T84 cells (40-80% confluent in 24-well plates) were incubated in media (S-MEM, Life Technologies, Rockville, Md.) containing low (300 μM) CaCl2 to maximize the signal-to-noise ratio for L-cis-diltiazem (L-DLT)-sensitive 45Ca2+ transport determinations. Cells were treated with ST, 8-br-cGMP, and/or L-DLT for the indicated times, followed by the addition of 1 μCi per well 45Ca2+ for the last 15 min. Incubations were terminated by washing four times in cold PBS buffer (145 mM NaCl/5 mM KCl/1 mM MgCl2/10 mM glucose/5 mM Hepes, pH 7.4) containing 0.1 mM EGTA, cells were solubilized with cold NaOH (0.1 M), and radioactivity was quantified in 100-μl aliquots.

[3] = test system: human T84 colon cancer cells; assay: Perforated whole-cell patch-clamp current measurements; format: cell-based
Description: The perforated mode of the whole-cell patch-clamp recording was applied to human T84 colon cancer cells. Membrane potential was controlled through the electrical access obtained by membrane perforation induced by amphotericin B (9, 10). The pipette solution supplemented by amphotericin B ([…]) contained: 140 mM KCl, 1 mM MgCl2, 5 mM EGTA, and 20 mM Hepes-KOH (pH 7.3). The bath solution contained (in mM): 136.5 mM NaCl, 5.4 mM KCl, 1.8 mM CaCl2, 0.5 mM MgCl2, 5.5 mM glucose, and 5 mM Hepes-NaOH (pH 7.4). Voltage-clamp recordings were performed with an Axopatch 1-C patch-clamp amplifier (Axon Instruments, Foster City, Calif.) at 31±1° C. using an HCC-100 temperature controller (Dagan Instruments, Minneapolis; ref. 19).

rat colon = conditions: L-DLT 200 μM; cited from earlier work
[4] = test system: human colorectal cancer cells; assay: Association of cells with connective tissue proteins in vitro; format: cell-based; conditions: ST at 1 micromolar
From the text: Type IV collagen forms the connective tissue meshwork supporting the lamina propria and specifically serves to trap cells through specific interactions with beta integrins. Cancer cells evade this trap by diminishing their ability to bind to type IV collagen. […] Enhancing this interaction will prevent metastases by trapping cells in the laminapropria underlying epithelial cells in the intestine.

[5] = Pharmacokinetics of ST in man by allometric scaling and dosage calculation
From the text: An alternative approach is to provide the patient with continual intravenous dosing of ST, thereby maintaining the cytostatic effect through adjuvant chemotherapy, while minimizing any adverse effects associated with ST. To achieve therapeutic efficacy, the steady state concentration (Css) should be ≧10 EC50.

[6] = test system: human colorectal cancer cells; assay: Actin cytoskeleton organization (confocal microscopy, cell spreading); format: cell-based
From the text: ST prevented human colorectal cancer cells from organizing their actin cytoskeleton. […] The latter is a functional readout of the ability of cells to organize actin. Human colorectal cancer cells treated with ST cannot spread their bodies out in vitro. An inability to organize their actin cytoskeletons will prevent these cells from being able to migrate through tissues to metastasize.

[7] = test system: [cGMP]i and intracellular cAMP in T84 cells; assay: Cyclic nucleotide (cGMP, cAMP) quantification by ELISA or RIA; format: cell-based, human
Description: cGMP and cAMP were quantified in exponentially growing T84 cells (˜60% confluent in 96-well plates) employing ELISA (Amersham Pharmacia) or RIA. In experiments employing ELISA, media was aspirated, reactions were terminated by the addition of a lysis solution (200 μl per well) containing 0.5% dodecyltrimethylammonium bromide, and aliquots (100 μl) from each well were processed for cyclic nucleotide determinations. In experiments employing RIA, reactions were terminated with ice-cold 100% ethanol, and supernatants were separated from pellets by centrifugation and processed for cGMP determinations (8).

GCC-bearing cells = assay: Pre-clinical cell cycle analysis; format: cell-based; conditions: ST alone
[8] = test system: matrix metalloproteinase 9 release from human colorectal cancer cells; assay: Release of matrix metalloproteinase 9 (MMP 9 activity, western blot); format: cell-based; conditions: ST 1 micromolar
From the text: Preventing the secretion of this digestive enzyme will inhibit the ability of these tumor cells to invade the wall of the intestine. […] ST did this at a concentration of 1 micromolar.

[9] = test system: human T84 colon cancer cells; assay: Perforated whole-cell patch-clamp current measurements; format: cell-based; conditions: Ca-free solution, n=5
SW480 cells = assay: DNA synthesis ([methyl-3H]thymidine incorporation), tumor cell proliferation; format: cell-based, human; conditions: SW480 cells that do not express GC-C, ST 1 μM
Description: as §1, §2

[10] = Pharmacokinetics of ST in rats; format: in vivo, rat; conditions: for half-life: rat, in vivo
[11] = ST as an anticancer agent in vitro; format: cell-based
ST receptors = ST receptors (Homo sapiens, UniProt P25092); conditions: about; cited from earlier work
ST receptors, sequence (P25092 24-1073): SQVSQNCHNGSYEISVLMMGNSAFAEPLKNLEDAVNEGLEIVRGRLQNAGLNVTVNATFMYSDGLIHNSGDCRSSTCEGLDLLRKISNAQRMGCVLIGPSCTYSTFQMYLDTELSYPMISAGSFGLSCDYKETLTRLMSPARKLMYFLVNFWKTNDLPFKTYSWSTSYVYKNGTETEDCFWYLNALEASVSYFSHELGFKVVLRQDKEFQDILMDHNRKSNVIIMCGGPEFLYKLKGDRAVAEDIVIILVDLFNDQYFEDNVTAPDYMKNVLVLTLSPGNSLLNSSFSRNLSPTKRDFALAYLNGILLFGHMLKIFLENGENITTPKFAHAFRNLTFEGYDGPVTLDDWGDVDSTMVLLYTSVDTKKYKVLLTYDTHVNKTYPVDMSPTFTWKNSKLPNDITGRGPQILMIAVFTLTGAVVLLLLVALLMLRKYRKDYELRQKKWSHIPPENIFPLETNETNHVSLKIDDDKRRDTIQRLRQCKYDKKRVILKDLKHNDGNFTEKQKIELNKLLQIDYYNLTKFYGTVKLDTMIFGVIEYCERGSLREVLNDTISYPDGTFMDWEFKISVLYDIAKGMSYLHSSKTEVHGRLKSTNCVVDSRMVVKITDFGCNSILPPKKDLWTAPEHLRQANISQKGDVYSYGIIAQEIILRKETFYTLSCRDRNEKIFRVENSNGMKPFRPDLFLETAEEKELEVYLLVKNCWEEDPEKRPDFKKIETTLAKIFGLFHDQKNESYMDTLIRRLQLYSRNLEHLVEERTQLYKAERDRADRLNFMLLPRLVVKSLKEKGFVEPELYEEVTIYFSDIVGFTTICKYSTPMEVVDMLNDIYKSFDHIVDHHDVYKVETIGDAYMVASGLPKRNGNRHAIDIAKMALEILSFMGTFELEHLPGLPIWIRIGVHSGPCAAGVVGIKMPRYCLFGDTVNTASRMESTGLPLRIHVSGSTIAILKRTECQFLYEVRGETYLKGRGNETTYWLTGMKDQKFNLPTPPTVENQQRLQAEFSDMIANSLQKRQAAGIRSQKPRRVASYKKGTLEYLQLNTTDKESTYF

## COc1ccc([C@H]2Sc3ccccc3N(CCN(C)C)C(=O)[C@H]2OC(C)=O)cc1 (relative stereo) [L-DLT, L-cis-diltiazem]
T84 cells [1]; 200 μM L-DLT, 8-br-cGMP 5 mM
  Effect of L-DLT on inhibition of proliferation by 8-br-cGMP: blocked
T84 cells [1]; with ST, 1 μM KT5823, 50 μM RP8pCPT-cGMP, 0.5 μM KT5720, 50 μM RP-cAMPs, 10 μM milrinone, 200 μM L-DLT, 20 μM BAPTA, 50 μM DTR, 1 μM PHE, 100 nM CTX
  Effect of agent on inhibition of proliferation induced by ST: prevented; also recorded: blocked
T84 cells [2]; pretreatment 30 min, 250 μM L-DLT
  Effect of L-DLT on ST- and 8-br-cGMP-induced 45Ca2+ influx: inhibited; also recorded: abolished
[3]; 200 μM L-DLT
  Effect of L-DLT on ST-induced current and reversal potential shift: reversibly blocked; also recorded: reversed
[3]; n=4
  Reversal potential Em restored by L-DLT in the presence of ST: −39.5±5.2 mV
Rat colon
  Effect on ST-induced 45Ca2+ influx in the rat colon: abolished

## CC(C)C[C@@H]1NC(=O)[C@H](CCC(=O)O)NC(=O)[C@@H]2CSSC[C@@H]3NC(=O)[C@H](C)NC(=O)[C@@H]4CCCN4C(=O)[C@H](CC(N)=O)NC(=O)[C@H](CSSC[C@H](NC(=O)[C@H](Cc4ccc(O)cc4)NC(=O)[C@H](Cc4ccccc4)NC(=O)[C@@H](NC(=O)[C@@H](N)CC(N)=O)[C@@H](C)O)C(=O)N2)NC(=O)[C@H](CSSC[C@@H](C(=O)N[C@@H](Cc2ccc(O)cc2)C(=O)O)NC(=O)CNC(=O)[C@H](C)NC3=O)NC1=O [ST]
[4]
  Increase of association of cells with laminin or fibronectin: not with laminin or fibronectin
  Increase of association of cells with type IV collagen: 2 fold
[5]; 70 kg man, (0.693)(Vd)/(t1/2)
  Clearance Cl: 3.7 mL/min/kg
[5]; 70 kg patient, ECF volume
  Volume of distribution Vd of ST: 12 L
[5]; calculated
  t1/2 (α) in man: 24 min
[5]; man, α phase, allometric scaling theory
  Blood half-life for ST (man), α: 24 min
[5]; man, β phase, allometric scaling theory
  Blood half-life for ST (man), β: 11.12 h
[5]; used for infusion rate calculation
  t1/2 (α+β): 31.8 min
[6]; ST 1 micromolar, confocal microscopy
  Organization of actin cytoskeleton: prevented
[6]; in vitro
  Cell spreading: cannot spread
[7]
  [cAMP]i accumulation: did not induce [cAMP]i accumulation
  [cGMP]i accumulation: induced the accumulation of [cGMP]i; also recorded: independent of [Ca2+]ext
GCC-bearing cells
  Effect on cell cycle: prolongation of the cell cycle; also recorded: increases equally for all four phases of the cell cycle
[8]
  Release of matrix metalloproteinase 9: inhibited the release
[9]
  Induced current after removal of [Ca2+]ext: 0.02±0.01 nA
T84 cells [1]; T84 cells expressing GC-C, ST 1 μM
  Inhibition of DNA synthesis / cell proliferation by ST: inhibits DNA synthesis; also recorded: inhibits cell proliferation
SW480 cells
  Inhibition of DNA synthesis by ST: not in tumor cells deficient in GC-C; also recorded: not in those cells that do not express GC-C
T84 cells [2]; ST 1 μM, 20 min, 8-br-cGMP 5 mM, 40 min
  Influx of 45Ca2+ into colon cancer cells: induced influx
[10]; in rats, an ECF agent
  Volume of distribution, Vd: 49 mls in rats (An ECF agent)
[10]; in rats, primarily renal
  Clearance: 14.9 hr^−1 in rats (Primarily renal)
[10]; α phase, read-out: Blood half-life for ST (rat), α
  half-life: 6 min
[10]; β phase, read-out: Blood half-life for ST (rat), β (converted)
  half-life: 161 min
[3]
  Induction of Ca2+-dependent K+ current (KCa), charybdotoxin-sensitive: induced
  Reversal potential derived from the induced current-voltage relationship: ~−70 mV
[3]; 500 nM ST, 2.5 mM 8-br-cGMP
  Induction of L-DLT-sensitive membrane current: induced membrane current; also recorded: induces an L-DLT-sensitive current
[3]; control, 1.8 mM CaCl2, n=5
  Induced current in the presence of [Ca2+]ext: 0.23±0.07 nA
[3]; n=6
  Reversal potential Em in the presence of ST: −66.3±3.6 mV
[3]; ramp pulses, holding potential −40 mV, mean±SEM
  Shift of the reversal potential ΔEm: −27.5±2.6 mV
[11]
  IC50: 14 nM

## Guanylin: 15 amino acid peptide with about 50% sequence homology to ST, identified in mammalian intestine (PNTCEICAYAACTGC; guanylin)
ST receptors
  Guanylate cyclase activation level, fold less than native ST: 10- to 100 fold
